Experimental data published in patent US20230085307A1, “PYRIDAZINONE COMPOUND AND HERBICIDE” (NISSAN CHEMICAL CORPORATION, priority 2019, published 2023).

Assays:
[1] = test system: beet; assay: Test Example 4: effect on crop by soil treatment (Table 19, symbol f); format: in vivo; conditions: amount of applied herbicide 320 g/ha
Text: (§1) [Test Example 4] Herbicidal Effect Test by Soil Treatment
(§2) Sterilized diluvial soil was placed in a plastic box having a length of 21 cm, a width of 13 cm, and a depth of 7 cm. The seeds of each of southern crabgrass, green foxtail, barnyard grass, wild oat, blackgrass, Italian ryegrass, windgrass, velvetleaf, redroot pigweed, lambsquarters, chickweed, false cleavers, persian speedwell, corn, soybean, rice, wheat, beet, and rapeseed were sowed in a spot-like manner and covered with the soil having a thickness of about 1.5 cm. Subsequently, the emulsion agent of the compound of the present invention prepared according to Formulation Example 2 was diluted with water so as to achieve a predetermined herbicide amount, and the diluted emulsion agent was uniformly applied to the surface of the soil with a small-sized spray. The plastic box was placed in a greenhouse at 25° C. to 30° C. for growth of the plants. Three weeks after the herbicide application, the effect of the herbicide on each plant was evaluated according to the criteria of Test Example 1.

[2] = test system: rapeseed; assay: Test Example 4: effect on crop by soil treatment (Table 19, symbol g); format: in vivo; conditions: amount of applied herbicide 320 g/ha
Text: as §1, §2

[3] = test system: southern crabgrass; assay: Test Example 5: herbicidal effect by foliage application, plastic box (Table 20, symbol F); format: in vivo, southern crabgrass (Digitaria ciliaris); conditions: foliage application, 320 g/ha, evaluated three weeks after application
Summary of the method: (§3)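 Plants sown in sterilized diluvial soil and grown 14 days in a greenhouse at 25° C to 30° C, then sprayed on the foliage with the compound's emulsion diluted in water to a predetermined herbicide amount. Injury to weeds and crops scored three weeks after application on a visual rating scale.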

[4] = test system: green foxtail; assay: Test Example 5: herbicidal effect by foliage application, plastic box (Table 20, symbol G); format: in vivo, green foxtail (Setaria viridis); conditions: foliage application, 320 g/ha, evaluated three weeks after application
Summary of the method: as §3

[5] = test system: barnyard grass; assay: Test Example 5: herbicidal effect by foliage application, plastic box (Table 20, symbol H); format: in vivo, barnyard grass (Echinochloa crus-galli); conditions: foliage application, 320 g/ha, evaluated three weeks after application
Summary of the method: as §3

[6] = test system: wild oat; assay: Test Example 5: herbicidal effect by foliage application, plastic box (Table 20, symbol I); format: in vivo, wild oat (Avena fatua); conditions: foliage application, 320 g/ha, evaluated three weeks after application
Summary of the method: as §3

[7] = test system: blackgrass; assay: Test Example 5: herbicidal effect by foliage application, plastic box (Table 20, symbol J); format: in vivo, blackgrass (Alopecurus myosuroides); conditions: foliage application, 320 g/ha, evaluated three weeks after application
Summary of the method: as §3

[8] = test system: Italian ryegrass; assay: Test Example 5: herbicidal effect by foliage application, plastic box (Table 20, symbol K); format: in vivo, Italian ryegrass (Lolium multiflorum); conditions: foliage application, 320 g/ha, evaluated three weeks after application
Summary of the method: as §3

[9] = test system: windgrass; assay: Test Example 5: herbicidal effect by foliage application, plastic box (Table 20, symbol L); format: in vivo, windgrass (Apera spica-venti); conditions: foliage application, 320 g/ha, evaluated three weeks after application
Summary of the method: as §3

[10] = test system: velvetleaf; assay: Test Example 5: herbicidal effect by foliage application, plastic box (Table 20, symbol M); format: in vivo, velvetleaf (Abutilon theophrasti); conditions: foliage application, 320 g/ha, evaluated three weeks after application
Summary of the method: as §3

[11] = test system: redroot pigweed; assay: Test Example 5: herbicidal effect by foliage application, plastic box (Table 20, symbol N); format: in vivo, redroot pigweed (Amaranthus retroflexus); conditions: foliage application, 320 g/ha, evaluated three weeks after application
Summary of the method: as §3

[12] = test system: lambsquarters; assay: Test Example 5: herbicidal effect by foliage application, plastic box (Table 20, symbol O); format: in vivo, lambsquarters (Chenopodium album); conditions: foliage application, 320 g/ha, evaluated three weeks after application
Summary of the method: as §3

[13] = test system: chickweed; assay: Test Example 5: herbicidal effect by foliage application, plastic box (Table 20, symbol P); format: in vivo, common chickweed (Stellaria media); conditions: foliage application, 320 g/ha, evaluated three weeks after application
Summary of the method: as §3

[14] = test system: persian speedwell; assay: Test Example 5: herbicidal effect by foliage application, plastic box (Table 20, symbol R); format: in vivo, Persian speedwell (Veronica persica); conditions: foliage application, 320 g/ha, evaluated three weeks after application
Summary of the method: as §3

[15] = test system: corn; assay: Test Example 5: effect on crop by foliage application, plastic box (Table 20, symbol c); format: in vivo; conditions: 320 g/ha, evaluated three weeks after application
Text: (§4) [Test Example 5] Herbicidal Effect Test by Foliage Application
as §2, with “Thereafter, the plants were grown in a greenhouse at 25° C. to 30° C. After 14-day growth of the plants,” for “Subsequently,”, “a foliage part” for “the surface of the soil”, “spray.” for “spray. The plastic box was placed in a greenhouse at 25° C. to 30° C. for growth of the plants.”

[16] = test system: soybean; assay: Test Example 5: effect on crop by foliage application, plastic box (Table 20, symbol d); format: in vivo; conditions: 320 g/ha, evaluated three weeks after application
Text: as §4
as §2, with “Thereafter, the plants were grown in a greenhouse at 25° C. to 30° C. After 14-day growth of the plants,” for “Subsequently,”, “a foliage part” for “the surface of the soil”, “spray.” for “spray. The plastic box was placed in a greenhouse at 25° C. to 30° C. for growth of the plants.”

[17] = test system: wheat; assay: Test Example 5: effect on crop by foliage application, plastic box (Table 20, symbol e); format: in vivo; conditions: 320 g/ha, evaluated three weeks after application
Text: as §4
as §2, with “Thereafter, the plants were grown in a greenhouse at 25° C. to 30° C. After 14-day growth of the plants,” for “Subsequently,”, “a foliage part” for “the surface of the soil”, “spray.” for “spray. The plastic box was placed in a greenhouse at 25° C. to 30° C. for growth of the plants.”

[18] = test system: beet; assay: Test Example 5: effect on crop by foliage application, plastic box (Table 20, symbol f); format: in vivo; conditions: 320 g/ha, evaluated three weeks after application
Text: as §4
as §2, with “Thereafter, the plants were grown in a greenhouse at 25° C. to 30° C. After 14-day growth of the plants,” for “Subsequently,”, “a foliage part” for “the surface of the soil”, “spray.” for “spray. The plastic box was placed in a greenhouse at 25° C. to 30° C. for growth of the plants.”

[19] = test system: rapeseed; assay: Test Example 5: effect on crop by foliage application, plastic box (Table 20, symbol g); format: in vivo; conditions: 320 g/ha, evaluated three weeks after application
Text: as §4
as §2, with “Thereafter, the plants were grown in a greenhouse at 25° C. to 30° C. After 14-day growth of the plants,” for “Subsequently,”, “a foliage part” for “the surface of the soil”, “spray.” for “spray. The plastic box was placed in a greenhouse at 25° C. to 30° C. for growth of the plants.”

SMILES: COc1ccccc1-c1sc2ccc(C3CC3)cc2c1-c1c(O)c(C)nn(C)c1=O [Compound No. 2-160, 4-(5-cyclopropyl-2-(2-methoxyphenyl)benzo[b]thiophen-3-yl)-5-hydroxy-2,6-dimethylpyridazin-3(2H)-one]
- f: beet, effect on crop rating [1]: 0 (Herbicidal rate of 5% or less (almost no effect))
- g: rapeseed, effect on crop rating [2]: 1 (Herbicidal rate of 5% or more and less than 20%)
- herbicidal effect on F: southern crabgrass (criteria 0-5) [3]: 0 (Herbicidal rate of 5% or less (almost no effect))
- herbicidal effect on G: green foxtail (criteria 0-5) [4]: 4 (Herbicidal rate of 70% or more and less than 90%)
- herbicidal effect on H: barnyard grass (criteria 0-5) [5]: 4 (Herbicidal rate of 70% or more and less than 90%)
- herbicidal effect on I: wild oat (criteria 0-5) [6]: 0 (Herbicidal rate of 5% or less (almost no effect))
- herbicidal effect on J: blackgrass (criteria 0-5) [7]: 4 (Herbicidal rate of 70% or more and less than 90%)
- herbicidal effect on K: Italian ryegrass (criteria 0-5) [8]: 3 (Herbicidal rate of 40% or more and less than 70%)
- herbicidal effect on L: windgrass (criteria 0-5) [9]: 5 (Herbicidal rate of 90% or more (almost completely withered))
- herbicidal effect on M: velvetleaf (criteria 0-5) [10]: 4 (Herbicidal rate of 70% or more and less than 90%)
- herbicidal effect on N: redroot pigweed (criteria 0-5) [11]: 5 (Herbicidal rate of 90% or more (almost completely withered))
- herbicidal effect on O: lambsquarters (criteria 0-5) [12]: 2 (Herbicidal rate of 20% or more and less than 40%)
- herbicidal effect on P: chickweed (criteria 0-5) [13]: 5 (Herbicidal rate of 90% or more (almost completely withered))
- herbicidal effect on R: persian speedwell (criteria 0-5) [14]: 5 (Herbicidal rate of 90% or more (almost completely withered))
- effect on crop c: corn (criteria 0-5) [15]: 0 (Herbicidal rate of 5% or less (almost no effect))
- effect on crop d: soybean (criteria 0-5) [16]: 3 (Herbicidal rate of 40% or more and less than 70%)
- effect on crop e: wheat (criteria 0-5) [17]: 1 (Herbicidal rate of 5% or more and less than 20%)
- effect on crop f: beet (criteria 0-5) [18]: 5 (Herbicidal rate of 90% or more (almost completely withered))
- effect on crop g: rapeseed (criteria 0-5) [19]: 5 (Herbicidal rate of 90% or more (almost completely withered))
- melting point: 182 to 184 °C
